Key:
[1] = target: D2 receptor (Homo sapiens, UniProt P14416); assay: [3H]Thymidine uptake assay for D2 intrinsic activity; type: cell-based; design: Emax: dose or concentration left out as unconfirmed; conditions: for Emax at 1 µM: test compound 1 μM, 1 μM Quinpirole = 100% intrinsic activity
Chain of D2 receptor (P14416 whole entry): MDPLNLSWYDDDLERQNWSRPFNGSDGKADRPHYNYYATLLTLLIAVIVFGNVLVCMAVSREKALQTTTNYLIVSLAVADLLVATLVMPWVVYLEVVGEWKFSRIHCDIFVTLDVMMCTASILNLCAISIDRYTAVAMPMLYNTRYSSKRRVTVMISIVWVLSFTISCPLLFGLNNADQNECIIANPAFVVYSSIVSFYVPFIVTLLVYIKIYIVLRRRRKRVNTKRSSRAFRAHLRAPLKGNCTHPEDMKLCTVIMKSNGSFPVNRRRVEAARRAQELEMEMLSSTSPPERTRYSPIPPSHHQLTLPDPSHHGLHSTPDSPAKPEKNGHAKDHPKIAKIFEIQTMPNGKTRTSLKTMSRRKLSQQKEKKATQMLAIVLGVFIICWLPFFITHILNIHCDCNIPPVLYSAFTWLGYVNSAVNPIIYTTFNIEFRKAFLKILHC

Compound | Emax at 1 µM ([1]; Table 1) [%] | also measured
CCOc1cccc(N2CCN(CCCCOc3ccc4c(n3)NC(=O)CC4)CC2)c1Cl [Example A21, 7-{4-[4-(2-Chloro-3-ethoxy-phenyl)-piperazin-1-yl]-butoxy}-3,4-dihydro-1H-[1,8]naphthyridin-2-one] |  | melting point: 110 to 112 °C
O=c1ccc2ccc(CCCCCN3CCN(c4cccc(Cl)c4Cl)CC3)nc2[nH]1 [Example C20, 7-{5-[4-(2,3-Dichloro-phenyl)-piperazin-1-yl]-pentyl}-1H-[1,8]naphthyridin-2-one] |  | melting point: 176 to 178 °C
CCc1cccc(N2CCN(CCCCOc3nc(C)c4ccc(=O)[nH]c4n3)CC2)n1 [Example H7, 2-{4-[4-(6-Ethyl-pyridin-2-yl)-piperazin-1-yl]-butoxy}-4-methyl-8H-pyrido[2,3-d]pyrimidin-7-one] | 46 | 
O=c1ccc2cnc(OCCCCN3CCN(c4cccc5c4OCCO5)CC3)cc2[nH]1 [Example H7′, 7-{4-[4-(2,3-Dihydro-benzo[1,4]dioxin-5-yl)-piperazin-1-yl]-butoxy}-1H-[1,6]naphthyridin-2-one] |  | Emax at 1 µM ([1]; Table 2): 17%
O=c1ccc2cnc(OCCCCN3CCN(c4cccc5c4OCCC5)CC3)cc2[nH]1 [Example H8′, 7-[4-(4-Chroman-8-yl-piperazin-1-yl)-butoxy]-1H-[1,6]naphthyridin-2-one] |  | Emax at 1 µM ([1]; Table 2): 32%
O=c1ccc2cnc(OCCCCN3CCN(c4cccc5c4OC(F)(F)O5)CC3)cc2[nH]1 [Example H9′, 7-{4-[4-(2,2-Difluoro-benzo[1,3]dioxol-4-yl)-piperazin-1-yl]-butoxy}-1H-[1,6]naphthyridin-2-one] |  | Emax at 1 µM ([1]; Table 2): 31%
Cc1nc(OCCCCN2CCN(c3cccc4ccc(F)cc34)CC2)nc2[nH]c(=O)ccc12 [Example H10, 2-{4-[4-(7-Fluoro-naphthalen-1-yl)-piperazin-1-yl]-butoxy}-4-methyl-8H-pyrido[2,3-d]pyrimidin-7-one] | 44 | 
COc1ccc2cccc(N3CCN(CCCCOc4nc(C)c5ccc(=O)[nH]c5n4)CC3)c2c1 [Example H11, 2-{4-[4-(7-Methoxy-naphthalen-1-yl)-piperazin-1-yl]-butoxy}-4-methyl-8H-pyrido[2,3-d]pyrimidin-7-one] | 23 | 
Cc1nc(OCCCCN2CCN(c3cccc4ccccc34)CC2)nc2[nH]c(=O)ccc12 [Example H12, 4-Methyl-2-[4-(4-naphthalen-1-yl-piperazin-1-yl)-butoxy]-8H-pyrido[2,3-d]pyrimidin-7-one] | 34 | 
Cc1nc(OCCCCN2CCN(c3cccc4ccc(F)cc34)CC2)nc2c1ccc(=O)n2C [Example H13, 2-{4-[4-(7-Fluoro-naphthalen-1-yl)-piperazin-1-yl]-butoxy}-4,8-dimethyl-8H-pyrido[2,3-d]pyrimidin-7-one] | 36 | 
COc1ccc2cccc(N3CCN(CCCCOc4nc(C)c5ccc(=O)n(C)c5n4)CC3)c2c1 [Example H14, 2-{4-[4-(7-Methoxy-naphthalen-1-yl)-piperazin-1-yl]-butoxy}-4,8-dimethyl-8H-pyrido[2,3-d]pyrimidin-7-one] | 33 | 
O=C1CCc2cnc(CCCCCN3CCN(c4cccc(Cl)c4Cl)CC3)cc2N1 [Example I1, 7-{5-[4-(2,3-Dichloro-phenyl)-piperazin-1-yl]-pentyl}-3,4-dihydro-1H-[1,6]naphthyridin-2-one] | 17 | 
O=C1CCc2cnc(OCCCCN3CCN(c4cccc5c4CCCC5)CC3)cc2N1 [Example I2, 7-{4-[4-(5,6,7,8-Tetrahydro-naphthalen-1-yl)-piperazin-1-yl]-butoxy}-3,4-dihydro-1H-[1,6]naphthyridin-2-one] | 37 | 
O=C1CCc2cnc(OCCCCN3CCN(c4cccc5ccccc45)CC3)cc2N1 [Example I3, 7-[4-(4-Naphthalen-1-yl-piperazin-1-yl)-butoxy]-3,4-dihydro-1H-[1,6]naphthyridin-2-one] | 33 | 
O=C1CCc2cnc(OCCCCN3CCN(c4cccc5c4CCC5)CC3)cc2N1 [Example I5, 7-[4-(4-Indan-4-yl-piperazin-1-yl)-butoxy]-3,4-dihydro-1H-[1,6]naphthyridin-2-one] | 23 | 
O=C1CCc2cnc(OCCCCN3CCN(c4cccc5ccc(F)cc45)CC3)cc2N1 [Example I6, 7-{4-[4-(7-Fluoro-naphthalen-1-yl)-piperazin-1-yl]-butoxy}-3,4-dihydro-1H-[1,6]naphthyridin-2-one] |  | Emax ([1]; read-out: D2 Intrinsic Activity (%)): 24%
O=C1CCc2cnc(OCCCCN3CCN(c4cccc5ccccc45)CC3)c(Br)c2N1 [Example I7, 8-Bromo-7-[4-(4-naphthalen-1-yl-piperazin-1-yl)-butoxy]-3,4-dihydro-1H-[1,6]naphthyridin-2-one] | 37 | 
O=C1CCc2cnc(OCCCCN3CCN(c4cccc(Cl)c4Cl)CC3)c(Br)c2N1 [Example I8, 8-Bromo-7-{4-[4-(2,3-dichloro-phenyl)-piperazin-1-yl]-butoxy}-3,4-dihydro-1H-[1,6]naphthyridin-2-one] | 25 | 
O=C1CCc2cnc(OCCCCN3CCN(c4cccc(Cl)c4Cl)CC3)c(Cl)c2N1 [Example I9, 8-Chloro-7-{4-[4-(2,3-dichloro-phenyl)-piperazin-1-yl]-butoxy}-3,4-dihydro-1H-[1,6]naphthyridin-2-one] | 19 | 
O=C1CCc2cnc(OCCCCN3CCN(c4cccc5ccccc45)CC3)c(Cl)c2N1 [Example I10, 8-Chloro-7-[4-(4-naphthalen-1-yl-piperazin-1-yl)-butoxy]-3,4-dihydro-1H-[1,6]naphthyridin-2-one] | 21 | 
COC(=O)c1c(OCCCCN2CCN(c3cccc4ccccc34)CC2)ncc2c1NC(=O)CC2 [Example I11, 7-[4-(4-Naphthalen-1-yl-piperazin-1-yl)-butoxy]-2-oxo-1,2,3,4-tetrahydro-[1,6]naphthyridine-8-carboxylic acid methyl ester] | 19 | 
O=c1ccc2cnc(OCCCCN3CCN(c4cccc5c4CCCC5)CC3)cc2[nH]1 [Example I14, 7-{4-[4-(5,6,7,8-Tetrahydro-naphthalen-1-yl)-piperazin-1-yl]-butoxy}-1H-[1,6]naphthyridin-2-one] | 24 | 
O=c1ccc2cnc(OCCCCN3CCN(c4cccc5c4CCC5)CC3)cc2[nH]1 [Example I15, 7-[4-(4-Indan-4-yl-piperazin-1-yl)-butoxy]-1H-[1,6]naphthyridin-2-one] | 20 | 
O=c1ccc2cnc(OCCCCN3CCN(c4cccc5ccccc45)CC3)cc2[nH]1 [Example I16, 7-[4-(4-Naphthalen-1-yl-piperazin-1-yl)-butoxy]-1H-[1,6]naphthyridin-2-one] | 27 | 
O=c1ccc2cnc(OCCCCN3CCN(c4cccc5ccc(F)cc45)CC3)cc2[nH]1 [Example I17, 7-{4-[4-(7-Fluoro-naphthalen-1-yl)-piperazin-1-yl]-butoxy}-1H-[1,6]naphthyridin-2-one] | 32 | 
O=c1ccc2cnc(NCCCCN3CCN(c4cccc(Cl)c4Cl)CC3)cc2[nH]1 [Example I18, 7-{4-[4-(2,3-Dichloro-phenyl)-piperazin-1-yl]-butylamino}-1H-[1,6]naphthyridin-2-one] | 54 | 
CC1(C)OC(=O)Nc2cc(CCCCCN3CCN(c4cccc(Cl)c4Cl)CC3)ncc21 [Example I19, 7-{5-[4-(2,3-Dichloro-phenyl)-piperazin-1-yl]-pentyl}-4,4-dimethyl-1,4-dihydro-pyrido[4,3-d][1,3]oxazin-2-one] | 22 | 
